Measured values as given in patent US6177415A, “Bacteriohopanetetrol and related compounds useful for modulation of lipoxygenase activity and anti-inflammatory applications” (The United States of America as represented by the …, priority 1997, dated 2001).
Like-named read-outs stand apart in the source and are kept apart here. Each block holds one compound with its values, some of them ahead of it.

How the values were obtained:
[1] = system: Arachidonic acid-induced inflammation (mouse ear); test: Topical anti-inflammatory test against arachidonic acid-induced inflammation (mouse ear swelling); type: in vivo, mouse (ICR, male); conditions: for % Inhibition of swelling: 1 hr A.A.; for % Inhibition of swelling / Ear Thickness Measurement, Left Ear (No A.A.) / Ear Thickness Measurement, Right Ear (1 hr. A.A.) / Swelling (R - L): n = 5/group; for Ear Thickness Measurement, Left Ear (No A.A.) / Ear Thickness Measurement, Right Ear (1 hr. A.A.) / Swelling (R - L): mean ± SEM
Method: The anti-inflammatory studies were carried out utilizing a topical model with arachidonic acid as the inflammation-inducing compound. 15-LO initiates the metabolic pathway leading to the formation of the lipoxins by converting arachidonic acid to […] (15-HPETE). Lipoxins may share some of the bioactivity associated with leukotrienes, the end-product associated with the 5-LO arachidonic acid metabolic pathway. A solution of arachidonic acid was applied to the surface of a mouse ear with the test substance (THBH) […]. Ear swelling was measured after an additional 60 minutes as an index of inflammation. For all test procedures, % inhibition was calculated according to the formula
where Ic is the increase in ear thickness (mm) in control mice and It is the increase in ear thickness in treated mice (see Example 5).
Arachidonic acid (2 mg in 20 μl acetone:pyridine:water) in a ratio of 7:2:1) was applied topically to the anterior and posterior surfaces of the right ear of mice 30 min following similar application of hopanoid or control (20 μl). Swelling of the ear was then measured by a Dyer model micrometer gauge after 60 min as an index of inflammation. For all test procedures, % inhibition was calculated according to formula (1). Five mice/dose level of test substance were used with negative and positive control groups run concurrently. The positive control was indomethacin.

Prostaglandin H Synthase = biological target: T1, Prostaglandin H Synthase (Ovis aries, UniProt P05979); test: Prostaglandin H synthase (cyclooxygenase) assay (oxygen consumption); type: biochemical
T1 construct: purchased Oxford Biomedical Research Co., Oxford, Mich
T1 sequence (P05979 25-600): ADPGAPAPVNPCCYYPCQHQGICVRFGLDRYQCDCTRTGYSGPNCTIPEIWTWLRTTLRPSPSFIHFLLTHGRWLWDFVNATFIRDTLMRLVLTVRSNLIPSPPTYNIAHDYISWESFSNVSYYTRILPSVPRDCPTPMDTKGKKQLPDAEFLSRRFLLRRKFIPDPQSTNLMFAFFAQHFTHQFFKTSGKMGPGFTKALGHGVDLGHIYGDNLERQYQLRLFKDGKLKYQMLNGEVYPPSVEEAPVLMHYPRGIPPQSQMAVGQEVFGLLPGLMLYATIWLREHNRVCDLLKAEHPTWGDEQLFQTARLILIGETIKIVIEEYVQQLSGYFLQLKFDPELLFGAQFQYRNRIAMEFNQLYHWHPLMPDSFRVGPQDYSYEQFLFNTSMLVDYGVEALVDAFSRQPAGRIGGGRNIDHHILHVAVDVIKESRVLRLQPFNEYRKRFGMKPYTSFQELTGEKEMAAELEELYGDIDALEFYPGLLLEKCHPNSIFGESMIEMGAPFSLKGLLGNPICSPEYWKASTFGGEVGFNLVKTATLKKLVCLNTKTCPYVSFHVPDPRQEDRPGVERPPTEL
Method: Prostaglandin H synthase was obtained from Oxford Biomedical Research Co., Oxford, Mich. The reaction mixture (1.80 ml) consisted of 0.5 mM phenol, 1 μM hematin, enzyme (3.75 μg in 5 μl), 25 μl of inhibitor dissolved in ethanol, and potassium phosphate buffer (0.1 M, pH 7.8), and was preincubated for 3 min. The reaction was started by injecting 15 μl of arachidonic acid dissolved in ethanol, yielding a final concentration of 100 μM arachidonic acid in the reaction vessel. The disappearance of dissolved oxygen was monitored as described in Example 2. The assay system was checked by measuring the inhibition in indomethacin, a known inhibitor of prostaglandin H synthase.

Soybean 15-LO = biological target: T2, Soybean 15-LO (Glycine max, UniProt P08170); test: Assay of soybean 15-lipoxygenase (oxygen consumption, Clark oxygen electrode); type: biochemical
T2 construct: purchased Sigma Chemical Co. (St. Louis, Mo.) Type V
T2 sequence (P08170 1-839): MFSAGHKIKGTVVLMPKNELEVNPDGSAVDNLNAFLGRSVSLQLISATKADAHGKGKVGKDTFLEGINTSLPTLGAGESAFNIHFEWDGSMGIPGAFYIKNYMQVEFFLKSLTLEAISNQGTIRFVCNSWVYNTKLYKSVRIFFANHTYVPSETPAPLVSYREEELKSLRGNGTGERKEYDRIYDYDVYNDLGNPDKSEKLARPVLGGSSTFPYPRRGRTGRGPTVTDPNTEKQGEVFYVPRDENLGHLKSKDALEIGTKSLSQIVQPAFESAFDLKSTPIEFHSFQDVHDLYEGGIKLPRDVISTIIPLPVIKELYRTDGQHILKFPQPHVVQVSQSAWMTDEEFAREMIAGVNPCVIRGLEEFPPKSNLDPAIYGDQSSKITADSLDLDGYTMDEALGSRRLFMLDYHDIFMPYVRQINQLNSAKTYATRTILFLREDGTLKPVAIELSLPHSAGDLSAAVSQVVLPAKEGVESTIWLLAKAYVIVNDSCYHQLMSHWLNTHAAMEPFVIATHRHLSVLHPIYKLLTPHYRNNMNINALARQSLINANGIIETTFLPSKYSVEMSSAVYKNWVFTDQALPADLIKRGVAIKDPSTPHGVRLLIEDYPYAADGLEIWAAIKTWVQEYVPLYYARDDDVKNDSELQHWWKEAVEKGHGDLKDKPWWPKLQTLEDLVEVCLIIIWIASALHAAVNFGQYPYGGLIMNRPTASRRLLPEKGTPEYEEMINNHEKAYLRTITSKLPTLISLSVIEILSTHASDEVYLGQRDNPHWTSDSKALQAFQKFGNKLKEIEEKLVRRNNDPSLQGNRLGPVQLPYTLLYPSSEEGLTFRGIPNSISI
Method: Initial screening was carried out on three hopanoids isolated from Z. mobilis (FIGS. 1,b,c,d). These compounds were purified as described and screened for their ability to inhibit three enzymes known for their activity in the metabolism of arachidonic acid. These enzymes, soybean 15-lipoxygenase (15-LO), human 5-lipoxygenase (5-LO) and prostaglandin H synthase (Table I), are known to be inhibited by most non-steroidal anti-inflammatory drugs (Parthasarathy and Rankin. 1992. Prog. Lipid. Res. vol. 31, p. 127). Soybean 15-LO was inhibited by one of the hopanoids, tetrahydroxybacteriohopane (THBH), with an IC50 of about 10 μM. […] The two other natural hopanoid compounds, THBH-GA and THBH-Et, were also evaluated for their effect on soybean 15-LO.
Soybean 15 LO (Type V) was obtained from Sigma Chemical Co. (St. Louis, Mo.). The reaction mixture (1.8 ml) consisted of 0.1 M borate buffer, pH 9.0, 5 μl (0.5 μg, 315 units) of soybean 15-LO dissolved in borate buffer, and 25 μl of inhibitor dissolved in ethanol, and was preincubated for 3 min. The reaction was started by injecting 100 μl of substrate mixture (prepared fresh daily and consisting of 1.0 mg arachidonic acid sonicated in 2.3 ml 0.1 M borate buffer, pH 9.0) yielding a final concentration of 50.9 μM arachidonic acid in the reaction vessel. The rate of disappearance of dissolved oxygen was monitored with a Clark Oxygen Electrode (Yellow Springs Instruments, Yellow Springs, Ohio) with the temperature controlled at 25° C., according to the method described by Breton et al. (1993. Prostaalandins, Leucotrienes, and Fatty Acids. vol. 49, p. 929, herein incorporated by reference). The O2 concentration in an air-saturated aqueous solution at 25° C., was calculated to be 0.24 mM. The assay system was checked by measuring the inhibition of phenidone, a known inhibitor of soybean 15-LO. Each potential inhibitor was tested at each of the listed concentrations at least three times and enzyme activities presented are the means ± standard deviations, reported as relative activities (calculated assuming that the activity in the minus-inhibitor control=100). The actual activities of the controls (in units of μM O2 consumed/min/mg protein) are also presented as a footnote to Table I.

Human 5-LO = biological target: T3, Human 5-LO (Homo sapiens, UniProt P09917); test: Assay of recombinant human 5-lipoxygenase (oxygen consumption); type: biochemical
T3 construct: purchased Oxford Biomedical Research Co., Oxford, Mich
T3 sequence (P09917 1-674): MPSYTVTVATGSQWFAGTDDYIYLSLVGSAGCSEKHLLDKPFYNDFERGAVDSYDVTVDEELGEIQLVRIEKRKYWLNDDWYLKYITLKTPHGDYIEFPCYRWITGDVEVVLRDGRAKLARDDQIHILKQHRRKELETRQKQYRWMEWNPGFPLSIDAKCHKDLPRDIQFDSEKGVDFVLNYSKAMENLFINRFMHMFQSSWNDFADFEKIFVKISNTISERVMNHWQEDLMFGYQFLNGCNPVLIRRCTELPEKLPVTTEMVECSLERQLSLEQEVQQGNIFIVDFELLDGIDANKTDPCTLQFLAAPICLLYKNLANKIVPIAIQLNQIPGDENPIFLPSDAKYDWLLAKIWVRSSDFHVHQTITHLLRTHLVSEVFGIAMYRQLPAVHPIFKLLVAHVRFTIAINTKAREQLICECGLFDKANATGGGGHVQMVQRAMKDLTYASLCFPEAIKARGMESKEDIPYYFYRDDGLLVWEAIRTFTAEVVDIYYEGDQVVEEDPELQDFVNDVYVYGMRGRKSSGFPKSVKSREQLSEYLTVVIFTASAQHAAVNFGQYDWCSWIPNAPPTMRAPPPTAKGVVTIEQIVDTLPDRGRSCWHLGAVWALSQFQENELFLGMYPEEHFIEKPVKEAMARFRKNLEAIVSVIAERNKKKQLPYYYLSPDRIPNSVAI
Method: The reaction mixture (1.80 ml) consisted of 0.25 mM CaCl2, 0.13 mM ATP, 7 μl of phosphatidylcholine (12 μg/2 ml ethanol), 25 μl of inhibitor dissolved in ethanol, and Tris-HCl buffer, 50 mM, pH 7.4, and preincubated for 3 min. The reaction was started by injecting 5 μl of arachidonic acid (3.8 mg/5 ml ethanol) yielding a final arachidonic acid concentration of 4.5 μM in the reaction mixture. The rate of disappearance of dissolved oxygen was monitored with an oxygen electrode at 37° C., as described in Example 2. The O2 concentration in an air-saturated aqueous solution at 37° C. was calculated to be 0.185 mM.

[2] = 25 μM, control = 100, read-out: Enzyme Activity (Relative ± S.D.)
[3] = control = 100, read-out: Enzyme Activity (Relative ± S.D.)
[4] = read-out: Enzyme Activity (Relative ± S.D.)
[5] = 50 μM, control = 100, read-out: Enzyme Activity (Relative ± S.D.)

Structure (SMILES): COc1ccc2c(c1)c(CC(=O)O)c(C)n2C(=O)c1ccc(Cl)cc1 [Indomethacin, indomethacin, reference compound]
% Inhibition of swelling ([1]; 3 mg/ear): 56%
Ear Thickness Measurement, Left Ear (No A.A.) ([1]; 3 mg/ear): 22.2 ± 0.5 × 0.01 mm
Ear Thickness Measurement, Right Ear (1 hr. A.A.) ([1]; 3 mg/ear): 29.4 ± 1.5 × 0.01 mm
Swelling (R - L) ([1]; 3 mg/ear): 7.2 ± 1.5 × 0.01 mm
remaining activity at 2.4 µM (Prostaglandin H Synthase; 2.4 μM, control = 100, read-out: Enzyme Activity (Relative ± S.D.)): 7 ± 2%

remaining activity at 25 µM (Soybean 15-LO; [2]): 34 ± 4%
remaining activity at 25 µM (Human 5-LO; [3]): 55 ± 2%
Structure (SMILES): O=C1CCN(c2ccccc2)N1 [Phenidone, phenidone, reference compound]

Structure (SMILES): C[C@H](CC[C@@H](O)[C@@H](O)[C@@H](O)CO)[C@H]1CC[C@]2(C)[C@H]3CC[C@@H]4[C@@]5(C)CCCC(C)(C)[C@@H]5CC[C@@]4(C)[C@]3(C)CC[C@@H]12 [THBH, tetrahydroxybacteriohopane]
% Inhibition of swelling ([1]; 10 mg/ear): 41%
Ear Thickness Measurement, Left Ear (No A.A.) ([1]; 10 mg/ear): 22.0 ± 0.7 × 0.01 mm
Ear Thickness Measurement, Right Ear (1 hr. A.A.) ([1]; 10 mg/ear): 31.6 ± 1.5 × 0.01 mm
Swelling (R - L) ([1]; 10 mg/ear): 9.6 ± 1.1 × 0.01 mm
effect on arachidonic acid-caused swelling (in words) ([1]; mouse ear): significantly affects swelling caused by the application of arachidonic acid
IC50 (Soybean 15-LO): ~10 µM
selectivity for 15-LO over 5-LO and prostaglandin H synthase (in words) (Soybean 15-LO): selectively inhibits 15-LO without inhibiting either 5-LO or prostaglandin H synthase
remaining activity at 6.75 µM (Soybean 15-LO; [4]): 68 ± 5%
remaining activity at 12.5 µM (Soybean 15-LO; [4]): 48 ± 9%
remaining activity at 25 µM (Soybean 15-LO; [4]): 15 ± 6%
remaining activity at 50 µM (Soybean 15-LO; [4]): 4 ± 3%
remaining activity at 100 µM (Soybean 15-LO; [4]): 11 ± 2%
remaining activity at 25 µM (Human 5-LO; [3]): 98 ± 2%
remaining activity at 50 µM (Human 5-LO; [5]): 97 ± 1%
inhibition of human 5-LO (in words) (Human 5-LO; 25 or 50 μM): not significantly inhibited
remaining activity at 25 µM (Prostaglandin H Synthase; [2]): 102 ± 3%
remaining activity at 50 µM (Prostaglandin H Synthase; [5]): 103 ± 2%
inhibition of prostaglandin H synthase (in words) (Prostaglandin H Synthase; 25 or 50 μM): not significantly inhibited

Structure (SMILES): CC(=O)OCC(OC(C)=O)C(OC(C)=O)C(CCC(C)C1CCC2(C)C1CCC1(C)C2CCC2C3(C)CCCC(C)(C)C3CCC21C)OC(C)=O (stereo not shown) [THBH-Acet]
inhibition or stimulation of soybean 15-LO (in words) (Soybean 15-LO): destroyed its ability to inhibit this 15-LO
remaining activity at 25 µM (Soybean 15-LO; [4]): 89 ± 11%
remaining activity at 50 µM (Soybean 15-LO; [4]): 114 ± 17%

Structure (SMILES): CC(CCC(O)C(O)C(O)COC1C(N)C(O)C(O)C1(O)CO)C1CCC2(C)C1CCC1(C)C2CCC2C3(C)CCCC(C)(C)C3CCC21C (stereo not shown) [THBH-Et, tetrahydroxybacteriohopane ether]
inhibition or stimulation of soybean 15-LO (in words) (Soybean 15-LO): stimulated enzyme activity
remaining activity at 25 µM (Soybean 15-LO; [4]): 151 ± 10%
remaining activity at 50 µM (Soybean 15-LO; [4]): 250 ± 38%

Structure (SMILES): CC(CCC(O)C(O)C(O)COC1OC(CO)C(O)C(O)C1N)C1CCC2(C)C1CCC1(C)C2CCC2C3(C)CCCC(C)(C)C3CCC21C (stereo not shown) [THBH-GA, tetrahydroxybacteriohopane glucosamine]
inhibition or stimulation of soybean 15-LO (in words) (Soybean 15-LO): stimulated enzyme activity
remaining activity at 25 µM (Soybean 15-LO; [4]): 172 ± 24%
remaining activity at 50 µM (Soybean 15-LO; [4]): 188 ± 14%
